Source: patent US6414222B1, “Gene combinations for herbicide tolerance in corn” (Regents of the University of Minnesota, priority 1993, dated 2002)

How the values were obtained:
[1] = test system: fatty acid synthesis in corn seedling chloroplasts; assay: [14C]acetate and [14C]pyruvate incorporation into fatty acids in isolated chloroplasts; format: biochemical, Corn (Z. mays L.); conditions: 10 minute assay time, mean of two experiments ± standard error
Experimental: Corn (Z. mays L., ‘B37×Oh43’) seeds were germinated in darkness for 96 hours in vermiculite in an incubation chamber maintained at 30° C., 80% RH. Seedlings were then transferred to a growth chamber with a 16 hour light (25° C.) and an 8 hour dark (20° C.) cycle, 90% relative humidity (RH). After greening 48 hours, seedlings were returned to the dark incubation chamber for 12 hours to deplete chloroplast starch reserves. Seedlings were harvested 6 days after planting. Pea (P. sativum L., ‘PI 9901-C’) seedlings were grown in vermiculite in a growth chamber with a 16 hour light (21° C.) and 8 hour dark (16° C.) cycle, 80% RH. Peas were harvested 10 to 13 days after planting. Black Mexican Sweet (BMS) corn suspension cultures were maintained in a supplemented Murashige-Skoog (MS) medium (C. E. Green, Hort. Sci., 12, 7-10 (1977)), and subcultured weekly by 20-fold dilution of the suspension culture into fresh medium.
Chloroplasts from corn and pea seedlings were isolated at 4° C. (K. Cline et al., J. Biol. Chem., 260, 3691-3696 (1985)). Seedlings (50 g of shoots) were homogenized in 200 ml buffer A (50 mM HEPES-NaOH pH 7.5, 330 mM sorbitol, 0.1% w/v BSA, 1 mM MgCl2, 1 mM MnCl2, 2 mM EDTA, 5 mM isoascorbate, 1.3 mM glutathione) in an omnimixer (five, 3-second bursts at full speed). The homogenate was filtered through six layers of cheesecloth and two layers of miracloth, and then centrifuged at 3000 g for 3 minutes with hand-braking. The pellet was gently resuspended in buffer A and layered onto a preformed linear Percoll gradient (50 mM HEPES-NaOH pH 7.5, 330 mM sorbitol, 1.9 mM isoascorbate, 1.08 mM glutathione, 0.1% w/v BSA, 50% Percoll) which was centrifuged at 3000 g for 20 minutes in a Sorvall HB-4 rotor. The lower band in the gradient, containing intact chloroplasts, was washed twice by gently resuspending it in 20 ml of buffer B (50 mM HEPES-NaOH, pH 7.5, and 330 mM sorbitol) followed by repelleting (3000 g, 5 minutes). The final pellet, consisting of intact chloroplasts, was resuspended in 2 to 3 ml of buffer B and stored on ice in the dark until use.
[^14C]acetate and [^14C]pyruvate were used as precursors to measure fatty acid biosynthesis in isolated chloroplasts (B. Liedvogel et al., Planta, 169, 481-489 (1986)). [^14C]acetate incorporation was assayed in a 0.5 ml-volume containing: 50 mM HEPES-NaOH (pH 7.5), 330 mM sorbitol, 5 mM KH2PO4, 10 mM NaHCO3, 1 mM MgCl2, 1 mM ATP, 0.1 mM CoA, 0.15 mM [^14C]acetate (3.33 mCi/mmol), and chloroplasts (20 to 50 μg chlorophyll). [^14C]pyruvate incorporation into fatty acids was assayed in the same medium except that it included 2 mM TPP, 1 mM NAD^+, 0.15 mM [^14C]-pyruvate (1.33 mCi/mmol), but no acetate. […] Aliquots (50 μl) were counted for radioactivity by liquid scintillation spectrometry.

fatty acid synthetase = assay: [14C]malonyl-CoA incorporation into fatty acids, cell-free extracts from corn suspension cultures; format: biochemical, Black Mexican Sweet (BMS) corn
Experimental: Incorporation of [^14C]malonyl-Coenzyme A into fatty acids (P. B. Hoj et al., supra; and J. B. Ohlrogge et al., Proc. Natl. Acad. Sci. USA, 76, 1194-1198 (1979)) was assayed using cell-free preparations from BMS tissue culture. Cells harvested during logarithmic growth phase were frozen in liquid nitrogen, ground with a mortar and pestle, and thawed in a medium containing: 0.1 M HEPES-KOH, pH 7.5; 0.3 M glycerol, and 5 mM DTT (buffer:tissue, 2:1, v/w). The homogenate was centrifuged at 12,000 g for 20 minutes. The supernatant was filtered through miracloth and centrifuged (125,000 g) for 60 minutes and then filtered through miracloth and assayed. Assays were conducted at 25° C. in a 0.4 ml volume containing: 1.0 mM ATP, 0.32 mM NADPH, 0.38 mM NADH, 25 μM CoA, 10 μM acetyl-CoA, 25 μg acyl-carrier protein, and 12 μM malonyl-CoA (11.54 μCi/μmol). Reactions were initiated by addition of [^14C]malonyl CoA and stopped by addition of 0.4 ml 40% KOH. Label incorporation into fatty acids was determined as above. Chlorophyll (D. I. Arnon, Plant Physiol., 24, 1-15 (1949)) and protein (P. K. Smith et al., Anal. Biochem., 150, 76-85 (1985)) were determined as described therein.

[2] = test system: tolerant cell line 2167-9/2160-154 S-2; assay: Callus growth on herbicide medium, line S-2; format: cell-based, maize
Experimental: Tolerant cell line 2167-9/2160-154 S-2 (“S-2”) was characterized to evaluate: (1) the magnitude of sethoxydim tolerance; (2) cross-tolerance of haloxyfop; and (3) the biochemical basis for the tolerance. Callus tissue from S-2 that had been maintained on 10 μM sethoxydim was transferred to media containing up to 100 μM sethoxydim. One-half gram of S-2 tissue was plated on a 7 cm filter paper as a lawn overlaying 50 ml agar-solidified culture medium containing 0, 0.5, 1.0, 2.0, 5.0, 10.0, 50.0 and 100 μM sethoxydim, and cultured for two weeks. Control cell line 2167-9/2160-154 was plated similarly on medium containing the same levels of sethoxydim. The control cell line growth after two weeks was inhibited 50% at 1 μM sethoxydim.

| SMILES | % Inhibition of [14C]acetate incorporation into fatty acids ([1]; Haloxyfop 1 μM) [%] | % Inhibition of [14C]pyruvate incorporation into fatty acids ([1]; Haloxyfop 1 μM) [%] | Effect on [14C]malonyl-CoA incorporation into fatty acids (fatty acid synthetase activity) (fatty acid synthetase; haloxyfop 1 μM) | IC50 ([2]; Zea mays, callus growth, read-out: Herbicide concentration inhibiting growth of S-2) [nM] | Fold increase in tolerance of S-2 versus control callus line (growth) ([2]; callus growth) | % Inhibition of [14C]acetate incorporation into fatty acids ([1]; Sethoxydim 10 μM) [%] | % Inhibition of [14C]pyruvate incorporation into fatty acids ([1]; Sethoxydim 10 μM) [%] | Effect on [14C]malonyl-CoA incorporation into fatty acids (fatty acid synthetase activity) (fatty acid synthetase; sethoxydim 10 μM) | Growth of S-2 callus ([2]; 100 μM sethoxydim, cultured two weeks) |
| --- | --- | --- | --- | --- | --- | --- | --- | --- | --- |
| CC(Oc1ccc(Oc2ncc(C(F)(F)F)cc2Cl)cc1)C(=O)O (stereo not shown) [Haloxyfop, 2-[4-[[3-chloro-5-(trifluoromethyl)-2-pyridinyl]oxy]phenoxy]-propanoic acid] | 89 | 99 | did not inhibit | 650 | ~30 fold |  |  |  |  |
| CCCC(=NOCC)C1=C(O)CC(CC(C)SCC)CC1=O (stereo not shown) [Sethoxydim, 2-[1-(ethoxyimino)-butyl]-5-[2-(ethylthio)propyl]-3-hydroxy-2-cyclohexen-1-one] |  |  |  |  | at least 100 fold | 90 | 98 | did not inhibit | not inhibited |
